“Also recorded” adds a separate entry of the source.
Key:
Assay type in all cases: cell-based, human
[1] = test system: glioma G179 tumour-initiating cells; test: Telomerase inhibition, cell population doubling analysis, G179 TIC line; conditions: Imetelstat 5 μM twice a week
Excerpt: Samples were obtained with patients' consent according to the Research Ethics Boards at The Hospital for Sick Children and Toronto Western Hospital. Fetal Neural Stem (NS) HF240 cells, human Mesenchymal Progenitor cells, human umbilical cord perivascular cells, and human skin-derived precursors hSKPs were previously described (Castelo-Branco et al. Clin Cancer Res. 2011 Jan. 1; 17(1):111-21). Glioma tumour-initiating cell (TIC) lines G179 and GLINS1 were derived from patients diagnosed with classic glioblastoma multiforme and maintained as previously described (Castelo-Branco et al., 2011). All cell lines and patient samples are described in Table 1.
HF240 normal neural stem cell line and the G179 TIC line were treated twice a week with 5 μM Imetelstat telomerase inhibitor. Cell population doubling analysis after treatment was then determined.

[2] = test system: neuroblastoma cell line (CHLA90); test: Telomerase inhibitor treatment of unmethylated neuroblastoma cell line CHLA90; conditions: CHLA90, unmethylated within region 2 of the TERT promoter, evidence of ALT; 5 μM for 5 weeks
[3] = test system: hypermethylated neuroblastoma cell lines; test: Telomerase inhibitor treatment of hypermethylated neuroblastoma cell lines; conditions: two neuroblastoma cell lines hypermethylated in region 2 of the TERT promoter, 5 μM for 5 weeks

Substance: Imetelstat
- growth / replicative potential (cell population doubling) [1]: inhibit growth; also recorded: loss of replicative potential
- response to treatment (growth and viability) [2]: did not
- response to treatment (growth and viability) [3]: responded
- response to treatment (growth and viability) ([3]; listed as imetelstat): inhibitory effect on growth and viability
